Test: Competitive inhibition of pig uterine fluid fully reduced PAP using p-NPP as substrate measured at 4.9 by UV-Vis spectrophotometric analysis
Assay type: tissue-based, Sus scrofa

Structure (SMILES) | Ki [nM]
CCCCCCCCCCCCCCCC(=O)NC(c1ccccc1)P(=O)(O)O (racemic) | 320
CCCCCCCCCCCCCCCCCC(=O)NC(c1ccc(OC)cc1)P(=O)(O)O (racemic) | 186
CCCCCCCCOCC(=O)NC(c1ccccc1)P(=O)(O)O (racemic) | 56000
CCCCCCCCCC(=O)NC(c1ccccc1)P(=O)(O)O (racemic) | 19000
CCCCCCCCCCCCCCCCCC(=O)NC(c1ccc(OCC)cc1)P(=O)(O)O (racemic) | 6000
CCCCCCCCCCCCCC(=O)NC(c1ccccc1)P(=O)(O)O (racemic) | 320
CCCCCCCCCCCCCC(=O)NC(c1ccc(OC)cc1)P(=O)(O)O (racemic) | 400
CCCCCCCCCCCCCCCCCC(=O)NC(c1ccccc1)P(=O)(O)O (racemic) | 168
CCCCCCCCCCCCCCCC(=O)NC(c1ccc(OC)cc1)P(=O)(O)O (racemic) | 340
CCCCCCCCCCCC(=O)NC(c1ccccc1)P(=O)(O)O (racemic) | 31000

Further lines, results first:

Ki [nM] | Structure (SMILES)
610 | CCCCCCCCCCCCCCCC(=O)NC(c1ccc(OCC)cc1)P(=O)(O)O (racemic)
3000 | CCCCCCCCCCCCCC(=O)NC(c1ccc(OCC)cc1)P(=O)(O)O (racemic)
3000 | CCCCCCCCCCCC(=O)NC(c1ccc(OC)cc1)P(=O)(O)O (racemic)
270 | CCCCCCCCCCCCCCCCOCC(=O)NC(c1ccc(OC)cc1)P(=O)(O)O (racemic)
550 | CCCCCCCCCCCCCCCCOCC(=O)NC(c1ccccc1)P(=O)(O)O (racemic)
